This is an account of results in the NIST ThermoML archive (doi:10.1021/acs.jced.5b00980).

This data set is described as follows: activity coefficient (dimensionless); of the first substance listed, at infinite dilution; xn = mol fraction of the nth substance listed. To be noted: 100 kPa, Liquid, Chromatography, x1 = 0.

SMILES strings stand for the structures. Numbers after ± are expanded uncertainties.

As for `C#CCCC` [1-pentyne] + CCCC[P+](CC)(CCCC)CCCC.CCOP(=O)([O-])OCC, the activity coefficient (328.15 K) is 0.725 ± 0.048; the activity coefficient (338.15 K) is 0.762 ± 0.05; the activity coefficient (348.15 K) turned out to be 0.797 ± 0.052; the activity coefficient (358.15 K) was 0.833 ± 0.054; the activity coefficient (368.15 K) is 0.866 ± 0.055.

Take `CCOCC` [diethyl ether] + CCCC[P+](CC)(CCCC)CCCC.CCOP(=O)([O-])OCC: the activity coefficient (328.15 K) amounted to 1.79 ± 0.12; the activity coefficient (338.15 K) was determined as 1.77 ± 0.12; the activity coefficient (348.15 K) stood at 1.75 ± 0.12; the activity coefficient (358.15 K) is 1.73 ± 0.12; the activity coefficient (368.15 K) came to 1.71 ± 0.11.

As to `c1ccsc1` [thiophene] + CCCC[P+](CC)(CCCC)CCCC.CCOP(=O)([O-])OCC, the activity coefficient runs as follows: (328.15 K) 0.58 ± 0.041; (338.15 K) 0.587 ± 0.042; (348.15 K) 0.595 ± 0.042; (358.15 K) 0.601 ± 0.042; (368.15 K) 0.607 ± 0.042.

On to `C=CCCC` [1-pentene] + CCCC[P+](CC)(CCCC)CCCC.CCOP(=O)([O-])OCC, for which the activity coefficient by setting is: (328.15 K) 2.18 ± 0.15; (338.15 K) 2.15 ± 0.15; (348.15 K) 2.13 ± 0.14; (358.15 K) 2.11 ± 0.14; (368.15 K) 2.09 ± 0.14.

As to `CO` [methanol] + CCCC[P+](CC)(CCCC)CCCC.CCOP(=O)([O-])OCC, the activity coefficient (338.15 K) came to 0.022, the activity coefficient (348.15 K) was 0.025, the activity coefficient (358.15 K) was 0.028 and the activity coefficient (368.15 K) was found to be 0.03.

On to `CCC(C)(C)OC` [2-methoxy-2-methylbutane] + CCCC[P+](CC)(CCCC)CCCC.CCOP(=O)([O-])OCC, for which the activity coefficient reads like this: (328.15 K) 2.09 ± 0.14; (338.15 K) 2.07 ± 0.14; (348.15 K) 2.05 ± 0.14; (358.15 K) 2.02 ± 0.14; (368.15 K) 2.01 ± 0.14.

Regarding `Cc1cccc(C)c1` [1,3-dimethylbenzene] + CCCC[P+](CC)(CCCC)CCCC.CCOP(=O)([O-])OCC, the activity coefficient stood at 1.7 ± 0.11 (328.15 K); 1.67 ± 0.11 (338.15 K); 1.64 ± 0.11 (348.15 K); 1.61 ± 0.11 (358.15 K); 1.59 ± 0.11 (368.15 K).

On to `CCCOCCC` [dipropyl ether] + CCCC[P+](CC)(CCCC)CCCC.CCOP(=O)([O-])OCC, for which the activity coefficient turned out to be 2.59 ± 0.18 (328.15 K); 2.55 ± 0.17 (338.15 K); 2.51 ± 0.17 (348.15 K); 2.47 ± 0.17 (358.15 K); 2.43 ± 0.17 (368.15 K).

For `CCC(C)(C)C` [2,2-dimethylbutane] + CCCC[P+](CC)(CCCC)CCCC.CCOP(=O)([O-])OCC, the activity coefficient was determined as 3.34 ± 0.23 (328.15 K); 3.27 ± 0.22 (338.15 K); 3.2 ± 0.22 (348.15 K); 3.14 ± 0.21 (358.15 K); 3.08 ± 0.21 (368.15 K).

For the molecule `C1=CCCCC1` [cyclohexene] + CCCC[P+](CC)(CCCC)CCCC.CCOP(=O)([O-])OCC, the activity coefficient reads like this: (328.15 K) 1.72 ± 0.12; (338.15 K) 1.69 ± 0.11; (348.15 K) 1.67 ± 0.11; (358.15 K) 1.65 ± 0.11; (368.15 K) 1.63 ± 0.11.

Turning to `Cc1ccccc1` [toluene] + CCCC[P+](CC)(CCCC)CCCC.CCOP(=O)([O-])OCC, the activity coefficient runs as follows: (328.15 K) 1.2 ± 0.08; (338.15 K) 1.19 ± 0.08; (348.15 K) 1.18 ± 0.08; (358.15 K) 1.16 ± 0.07; (368.15 K) 1.15 ± 0.07.

As to `CCCCCCCCCC` [decane] + CCCC[P+](CC)(CCCC)CCCC.CCOP(=O)([O-])OCC, the activity coefficient came out at 7.01 ± 0.48 (328.15 K); 6.74 ± 0.46 (338.15 K); 6.49 ± 0.44 (348.15 K); 6.26 ± 0.43 (358.15 K); 6.05 ± 0.41 (368.15 K).

`CCOC(C)(C)C` [2-ethoxy-2-methylpropane] + CCCC[P+](CC)(CCCC)CCCC.CCOP(=O)([O-])OCC: the activity coefficient runs as follows: (328.15 K) 2.66 ± 0.18; (338.15 K) 2.6 ± 0.18; (348.15 K) 2.56 ± 0.17; (358.15 K) 2.51 ± 0.17; (368.15 K) 2.47 ± 0.17.

Take `CCc1ccccc1` [ethylbenzene] + CCCC[P+](CC)(CCCC)CCCC.CCOP(=O)([O-])OCC: the activity coefficient was found to be 1.55 ± 0.1 (328.15 K); 1.52 ± 0.1 (338.15 K); 1.49 ± 0.1 (348.15 K); 1.46 ± 0.1 (358.15 K); 1.44 ± 0.09 (368.15 K).

`C=CCCCC` [hex-1-ene] + CCCC[P+](CC)(CCCC)CCCC.CCOP(=O)([O-])OCC: the activity coefficient amounted to 2.59 ± 0.18 (328.15 K); 2.54 ± 0.17 (338.15 K); 2.49 ± 0.17 (348.15 K); 2.44 ± 0.17 (358.15 K); 2.4 ± 0.16 (368.15 K).

Regarding `C1CCCCC1` [cyclohexane] + CCCC[P+](CC)(CCCC)CCCC.CCOP(=O)([O-])OCC, the activity coefficient came out at 2.17 ± 0.15 (328.15 K); 2.13 ± 0.14 (338.15 K); 2.09 ± 0.14 (348.15 K); 2.05 ± 0.14 (358.15 K); 2.01 ± 0.14 (368.15 K).

As for `CCC[N+](=O)[O-]` [1-nitropropane] + CCCC[P+](CC)(CCCC)CCCC.CCOP(=O)([O-])OCC, the activity coefficient (328.15 K) was 0.499 ± 0.038; the activity coefficient (338.15 K) was 0.507 ± 0.038; the activity coefficient (348.15 K) amounted to 0.515 ± 0.038; the activity coefficient (358.15 K) amounted to 0.523 ± 0.039; the activity coefficient (368.15 K) was 0.53 ± 0.039.

Consider `CC(C)CC(C)(C)C` [2,2,4-trimethylpentane] + CCCC[P+](CC)(CCCC)CCCC.CCOP(=O)([O-])OCC, for which the activity coefficient is 4.38 ± 0.3 (328.15 K); 4.25 ± 0.29 (338.15 K); 4.15 ± 0.28 (348.15 K); 4.05 ± 0.28 (358.15 K); 3.97 ± 0.27 (368.15 K).

Take `C1CCCCCCC1` [cyclooctane] + CCCC[P+](CC)(CCCC)CCCC.CCOP(=O)([O-])OCC: the activity coefficient amounted to 2.82 ± 0.19 (328.15 K); 2.74 ± 0.19 (338.15 K); 2.69 ± 0.18 (348.15 K); 2.63 ± 0.18 (358.15 K); 2.57 ± 0.17 (368.15 K).

Regarding `CCCC(C)=O` [pentan-2-one] + CCCC[P+](CC)(CCCC)CCCC.CCOP(=O)([O-])OCC, the activity coefficient reads like this: (328.15 K) 1.03 ± 0.06; (338.15 K) 1.03 ± 0.06; (348.15 K) 1.02 ± 0.06; (358.15 K) 1.02 ± 0.06; (368.15 K) 1.01 ± 0.06.

`CCCCC(C)=O` [2-hexanone] + CCCC[P+](CC)(CCCC)CCCC.CCOP(=O)([O-])OCC: the activity coefficient (328.15 K) is 1.15 ± 0.07; the activity coefficient (338.15 K) amounted to 1.15 ± 0.07; the activity coefficient (348.15 K) turned out to be 1.15 ± 0.07; the activity coefficient (358.15 K) amounted to 1.15 ± 0.07; the activity coefficient (368.15 K) was 1.14 ± 0.07.

With `c1ccncc1` [pyridine] + CCCC[P+](CC)(CCCC)CCCC.CCOP(=O)([O-])OCC, the activity coefficient worked out at 0.544 ± 0.04 (328.15 K); 0.545 ± 0.04 (338.15 K); 0.548 ± 0.04 (348.15 K); 0.549 ± 0.04 (358.15 K); 0.55 ± 0.04 (368.15 K).

As to `C=CCCCCCC` [oct-1-ene] + CCCC[P+](CC)(CCCC)CCCC.CCOP(=O)([O-])OCC, the activity coefficient worked out at 3.68 ± 0.25 (328.15 K); 3.6 ± 0.25 (338.15 K); 3.52 ± 0.24 (348.15 K); 3.45 ± 0.23 (358.15 K); 3.39 ± 0.23 (368.15 K).

Regarding `CC#N` [acetonitrile] + CCCC[P+](CC)(CCCC)CCCC.CCOP(=O)([O-])OCC, the activity coefficient worked out at 0.464 ± 0.036 (328.15 K); 0.465 ± 0.036 (338.15 K); 0.467 ± 0.036 (348.15 K); 0.468 ± 0.037 (358.15 K); 0.469 ± 0.037 (368.15 K).

With `CCCC(=O)CC` [3-hexanone] + CCCC[P+](CC)(CCCC)CCCC.CCOP(=O)([O-])OCC, the activity coefficient runs as follows: (328.15 K) 1.23 ± 0.08; (338.15 K) 1.21 ± 0.08; (348.15 K) 1.21 ± 0.08; (358.15 K) 1.2 ± 0.08; (368.15 K) 1.2 ± 0.08.

On to `CCCCCCC` [heptane] + CCCC[P+](CC)(CCCC)CCCC.CCOP(=O)([O-])OCC, for which the activity coefficient came out at 4.08 ± 0.28 (328.15 K); 3.97 ± 0.27 (338.15 K); 3.87 ± 0.26 (348.15 K); 3.78 ± 0.26 (358.15 K); 3.7 ± 0.25 (368.15 K).

With `C#CCCCCC` [1-heptyne] + CCCC[P+](CC)(CCCC)CCCC.CCOP(=O)([O-])OCC, the activity coefficient (328.15 K) turned out to be 1.01 ± 0.06; the activity coefficient (338.15 K) is 1.05 ± 0.07; the activity coefficient (348.15 K) is 1.09 ± 0.07; the activity coefficient (358.15 K) turned out to be 1.13 ± 0.07; the activity coefficient (368.15 K) came to 1.17 ± 0.07.

Take `C1CCOC1` [tetrahydrofuran] + CCCC[P+](CC)(CCCC)CCCC.CCOP(=O)([O-])OCC: the activity coefficient is, setting by setting: (328.15 K) 0.938 ± 0.059; (338.15 K) 0.926 ± 0.059; (348.15 K) 0.919 ± 0.058; (358.15 K) 0.907 ± 0.058; (368.15 K) 0.899 ± 0.057.

As for `CC(C)=O` [acetone] + CCCC[P+](CC)(CCCC)CCCC.CCOP(=O)([O-])OCC, the activity coefficient (328.15 K) stood at 0.835 ± 0.054; the activity coefficient (338.15 K) amounted to 0.827 ± 0.053; the activity coefficient (348.15 K) amounted to 0.822 ± 0.053; the activity coefficient (358.15 K) is 0.814 ± 0.053; the activity coefficient (368.15 K) turned out to be 0.809 ± 0.052.

In the case of `CCCCC` [pentane] + CCCC[P+](CC)(CCCC)CCCC.CCOP(=O)([O-])OCC, the activity coefficient worked out at 2.91 ± 0.2 (328.15 K); 2.85 ± 0.19 (338.15 K); 2.8 ± 0.19 (348.15 K); 2.75 ± 0.19 (358.15 K); 2.7 ± 0.18 (368.15 K).

Turning to `CCC(=O)CC` [pentan-3-one] + CCCC[P+](CC)(CCCC)CCCC.CCOP(=O)([O-])OCC, the activity coefficient by setting is: (328.15 K) 1.02 ± 0.06; (338.15 K) 1.02 ± 0.06; (348.15 K) 1.02 ± 0.06; (358.15 K) 1.02 ± 0.06; (368.15 K) 1.02 ± 0.06.
